Experimental data reported in patent US10076511B2, “Bisamide derivative of dicarboxylic acid as an agent for stimulating tissue regeneration and recovery of diminished tissue function” (TREAMID GmbH, priority 2015, dated 2018).
“And” between values parts separate entries of the source, which are not always exact repeats. Equal values may be shown once. Marks after values point to notes of the source that are not given here.

How the values were obtained:
male Wistar rats [1] = experiment: Metabolic syndrome model in rats (cafeteria diet); assay type: in vivo, rat
Text: Metabolic syndrome was simulated in male Wistar rats (260-280 g) by keeping animals on a high-fat diet (“cafeteria diet”) for 12 weeks. The “cafeteria diet” was balanced according to Current Protocols in Pharmacology [Current Protocols in Pharmacology (2005) Animal Models of Disease//Contributed by Petter Hedlund, Kenshi Matsumoto, and Karl-Erik Andersson]. The diet contained 25-35% of fats and 25-30% of digestible carbohydrates in addition to the standard diet of rodents. Treamid was administered at a dose of 0.5 mg/kg intragastrically once daily, every day from Week 7 to Week 11 of the diet. Reference drug Metformin was administered at a dose of 200 mg/kg intragastrically according to the same regimen.
The development of pathology and a therapeutic effect of Treamid were estimated by the following parameters: blood biochemical parameters (glucose, cholesterol, triglycerides (TG), HDL, LDL, atherogenicity index), glucose tolerance test, visceral fat weight, total number and percentage of motile sperm forms.
Glucose was determined with an OneNouch Select glucometer (Switzerland).
The levels of triglycerides, TCh and HDL were determined by using a diagnostic kit (Olvex Diagnosticum, Russia).
The level of LDL was determined by the formula 2. LDL=TCh−(HDL+TG/2.2) (1),
The atherogenicity index (AI) was calculated by the formula 3. AI=(TCh−HDL)/HDL (2),
The atherogenicity index was calculated for each animal individually, and then the arithmetic mean value of the group was calculated.
For the analysis of sperm, the animals were anesthetized with intraperitoneal injection of a mixture of Zolletil and Xyla (0.2 ml of Zoletil+0.8 ml Xyla) in a volume of 70 μl/100 g of weight. Epididymis was isolated. The epididymis head was cut off from the tail, weighed, 5 incisions were made (to improve the sperm yield), and placed in a tube containing 10 ml of phosphate buffered saline heated to 37° C. The tube was held at 37° C. for 10 minutes. Then, the tube was shaken on a shaker, 20 μl of the liquid was taken, applied to a glass slide heated to 37° C., and the number of motile sperm cells was assessed under a microscope. The calculation was performed up to 100 sperm cells.
The total number of sperm cells in a test tube with epididymis was calculated as follows: 20 μl of the liquid was taken after shaking and added to a tube containing 400 μl of physiological saline. After shaking the tubes, their contents (20 μl) were taken out and introduced into Goryaev chamber. The number of sperm cells was counted in 100 large squares. The number of sperm cells in the head of epididymis was calculated by the formula: Number of sperm cells=number of sperm cells in 100 large squares of Goryaev chamber*0.525(factor from the calculation of the dilution and the volume of Goryaev chamber)/weight of the epididymis head.

male Wistar rats [2] = experiment: Pair-test of sexual behavior, copulatory activity reduced by Synestrol; assay type: in vivo, rat
Description: Reduction of copulatory activity caused by androgen deficiency was simulated by administration of Synestrol to male rats.
The model is based on the antagonism of androgenic and estrogenic hormones. The administration of Synestrol to male rats leads to the suppression of the sexual activity in animals.
Experiments were performed on 36 male Wistar rats (3 months of age). For 30 days after the beginning of the experiment, all male rats (except for the intact group (background)) were intramuscularly injected with Synestrol at a dose of 50 U/kg/day. Further, from Day 31 to Day 45 of the experiment, animals of the experimental groups, in addition to Synestrol, were intraperitoneally administered Treamid at a dose of 1.5 mg/kg and reference preparation Tribestan at a dose of 70 mg/kg. The sexual activity was estimated by the pair-test of sexual behavior. For this purpose, female rats in the estrus stage caused by a preliminary 4-fold injection of Synestrol were involved in the experiment. The effectiveness of Treamid was estimated by the following indices: latency until the first mating attempt (LFM), the number of mating attempts (mounts), and the number of ejaculations. The obtained data were compared with those of the same animals before the experiment (the first test) and with the data in the control group (the second test).

[3] = Treamid 0.5 mg/kg, Metformin 200 mg/kg intragastrically Week 7-11 of high-fat diet
[4] = high-fat diet for 12 weeks, Treamid 0.5 mg/kg, Metformin 200 mg/kg
[5] = high-fat diet, Treamid 0.5 mg/kg, Metformin 200 mg/kg
[6] = First test, Synestrol-treated rats
[7] = Second test, Treamid 1.5 mg/kg or Tribestan 70 mg/kg intraperitoneally Day 31-45

O=C(CCCC(=O)NCCc1ncc[nH]1)NCCc1ncc[nH]1 [Treamid]
Glucose level in the blood of male rats, mmol/L (male Wistar rats [1]; 3 weeks after the drug administration, Treamid 0.5 mg/kg, Metformin 200 mg/kg): 6.5 ± 0.2*& mmol/L | Glucose level in the blood of male rats, mmol/L (male Wistar rats [1]; 5 weeks after the drug administration, Treamid 0.5 mg/kg, Metformin 200 mg/kg): 7.8 ± 0.2*& mmol/L | Relative weight of visceral fat, Fat near the intestine (male Wistar rats [1]; [3]): 0.94 ± 0.07 % based on body weight | Relative weight of visceral fat, Fat near the kidneys (male Wistar rats [1]; [3]): 0.48 ± 0.05& % based on body weight | Relative weight of visceral fat, Fat near the testes (male Wistar rats [1]; [3]): 1.03 ± 0.14 % based on body weight | Relative weight of visceral fat, Total fat (male Wistar rats [1]; [3]): 2.46 % based on body weight | reduction of visceral fat weight gain in comparison with the control group (male Wistar rats [1]; Treamid 0.5 mg/kg, Metformin): 1.3 times | Glucose level in the blood of male rats (male Wistar rats [1]; before administration of drugs (Week 6 of diet)): 6.4 ± 0.2 mmol/L | HDL, mM/l (male Wistar rats [1]; [4]): 1.9±0.2 mM/l and 1.9 ± 0.2& mM/l | LDL, mM/l (male Wistar rats [1]; [4]): 1.2 ± 0.2 mM/l | Total cholesterol, mM/l (male Wistar rats [1]; [4]): 3.5 ± 0.1 mM/l | Triglycerides, mM/l (male Wistar rats [1]; [4]): 0.9 ± 0.1 mM/l | Percentage of motile sperm forms (male Wistar rats [1]; [5]): 34.43 ± 3.15& % | Total number of sperm cells (male Wistar rats [1]; [5]): 260.0 ± 38.7& | Glucose level in the blood of male rats, mmol/L (male Wistar rats [1]; one week after the drug withdrawal, Treamid 0.5 mg/kg, Metformin 200 mg/kg): 8.3 ± 0.7& mmol/L | increase of the percentage of motile sperm forms (male Wistar rats [1]; vs. high-fat diet control): 1.5 times | increase of the total number of sperm cells (male Wistar rats [1]; vs. high-fat diet control): 1.7 times | Ejaculating animals, % (male Wistar rats [2]; [6]): 0.00%# | LFM (male Wistar rats [2]; [6]): 373.89 ± 112.89 s | The number of mounts, abs. (male Wistar rats [2]; [6]): 5.89 ± 1.91 abs. | LFM (male Wistar rats [2]; [7]): 381.22 ± 115.18 s | The number of mounts, abs. (male Wistar rats [2]; [7]): 8.00 ± 3.12 abs.
